Laboratory results as given in publication PMC9679916 (Biomacromolecules, 2021).
Bridges are numbered along the chain shown (N, C = ends). Where no end group is shown, it is not given here.

T1: mouse MRP-14 (mS100A9) (Mus musculus, UniProt P31725)
T1 sequence (P31725 1-113): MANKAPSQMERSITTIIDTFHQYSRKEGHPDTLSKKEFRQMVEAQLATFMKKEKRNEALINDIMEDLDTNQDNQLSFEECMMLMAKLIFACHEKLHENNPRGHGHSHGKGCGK

T2: human MRP-14 (hS100A9) (Homo sapiens, UniProt P06702)
T2 sequence (P06702 1-114): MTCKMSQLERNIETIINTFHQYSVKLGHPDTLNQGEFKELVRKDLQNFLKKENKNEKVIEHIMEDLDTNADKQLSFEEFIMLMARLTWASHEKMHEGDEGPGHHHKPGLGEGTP

T3: His-tagged MRP-14 (myeloid related protein 14) (human, UniProt P06702 1-114)
T3 sequence: T2 sequence (P06702 1-114)

T4: MRP-8/14 heterodimer (untagged MRP-8 premixed 1:1 with His-tagged MRP-14) (human | , UniProt P06702;P05109)
T4 sequence 1: T2 sequence (P06702 1-114)
T4 sequence 2: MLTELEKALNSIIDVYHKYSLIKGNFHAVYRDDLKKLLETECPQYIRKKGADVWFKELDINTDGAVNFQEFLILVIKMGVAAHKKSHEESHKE


Tests used:
mouse MRP-14 (mS100A9) = molecular target: T1, mouse MRP-14 (mS100A9); experiment: ELISA-based binding affinity of MRP-14-targeted TMV, mouse protein; conditions: for Kd: read-out: KD (nM) mouse MRP-14, ELISA, mS100A9 2 μg/mL coated, TMV 0-5 μg/mL, anti-TMV detection, single-site binding model, estimated
human MRP-14 (hS100A9) = molecular target: T2, human MRP-14 (hS100A9); experiment: ELISA-based binding affinity of MRP-14-targeted TMV, human protein; conditions: read-out: KD (nM) human MRP-14, hS100A9 2 μg/mL coated, TMV 0-5 μg/mL, anti-TMV detection, single-site binding model, estimated
[1] = system: deep vein thrombi in inferior vena cava; experiment: Murine DVT model; type: in vivo, mouse; conditions: vs PBS group, 3 h postinjection
[2] = molecular target: T3, His-tagged MRP-14 (myeloid related …); experiment: SPR
[3] = molecular target: T4, MRP-8/14 heterodimer (untagged MRP-8 …); experiment: SPR

Molecule	Kd (mouse MRP-14 (mS100A9)) [nM]	Kd (human MRP-14 (hS100A9)) [nM]	Kd [2] [µM]	also measured
ACNSVHQHHCGGGS-N3 (disulfide) [TMV-MTP6]	2.6	11.4		binding affinity, times stronger toward mouse than human MRP-14 (mouse MRP-14 (mS100A9); ratio of ELISA KD values, mouse vs human MRP-14): ~ 4 times
ASSHIHHGGGS-C [CPMV-MTP2]				reduction in thrombus weight and area [1]: 50%
ASSHIHHGGGS-C [TMV-MTP2]	11.9	13.1		
ACNSVHQHHCGGGS [MTP6 synthetic peptide with GGGS spacer]			39.6	Kd [3]: 57.6 µM
ACNSHRHGACGGGS-NH2 (disulfide 2-10 (inferred)) [MTP5 synthetic peptide with GGGS spacer]			67.6	
HNHMADPGGGS-NH2 [MTP3 synthetic peptide with GGGS spacer]			117	
